Data reported in patent publication US8969554B2, “6-acyl-1,2,4-triazine-3,5-dione derivative and herbicides” (Kumiai Chemical Industry Co., Ltd., priority 2010, dated 2015).

Assays:
Assay type in all cases: in vivo
foxtail = assay: Herbicidal activity by field soil treatment (Test example 2); conditions: 1000 g effective component per hectare, day 21 after the treatment;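 also: index 0 to 10 in 10% steps of herbicidal effect with 10 meaning complete death and 0 below 10%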
Summary of the method: (§1)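 Herbicidal effect is rated by fixed criteria on day 21 post-treatment. Before that, pots of field soil holding freshly sown, soil-covered seeds receive a surface spray of diluted wettable powder (1000 g per hectare effective component, spray volume 1000 liters per hectare) and are kept in a greenhouse.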

Echinochloa crus-galli [1] = assay: Herbicidal activity by field foliage treatment (Test example 3); parameters: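 index 0 to 10 in 10% steps of herbicidal effect with 10 meaning complete death and 0 below 10%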; conditions: 1000 g effective component per hectare, day 14 after the treatment
Summary of the method: (§2)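 Potted field-soil plants grown 2 weeks in a greenhouse were sprayed over the whole foliage with diluted wettable powder at 1000 L/ha, delivering 1000 g active ingredient per hectare. Herbicidal effect scored by visual criteria 14 days after treatment.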

Indian millet [2] = assay: Herbicidal activity by field soil treatment (Test example 2); parameters: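 index 0 to 10 in 10% steps of herbicidal effect with 10 meaning complete death and 0 below 10%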; conditions: 1000 g effective component per hectare, day 21 after the treatment
Summary of the method: as §1

A. retroflexus [3] = assay: as above; parameters: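 index 0 to 10 in 10% steps of herbicidal effect with 10 meaning complete death and 0 below 10%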; conditions: 1000 g effective component per hectare, day 21 after the treatment
Summary of the method: as §1

Echinochloa crus-galli [4] = assay: as above; parameters: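 index 0 to 10 in 10% steps of herbicidal effect with 10 meaning complete death and 0 below 10%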; conditions: 1000 g effective component per hectare, day 21 after the treatment
Summary of the method: as §1

Monochoria vaginalis = assay: Herbicidal activity by paddy field soil treatment (Test Example 1); parameters: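 index 0 to 10 in 10% steps of herbicidal effect with 10 meaning complete death and 0 below 10%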; conditions: 1000 g of effective component per hectare, evaluated on day 21 after the treatment, criteria of Table 72
Summary of the method: (§3)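 Herbicidal effect is rated on a graded scale 21 days after treatment. Treatment: wettable powder diluted in water, applied onto the flood water (3 cm deep) of sown paddy-soil pots on the day after sowing, 1000 g active component per hectare, greenhouse cultivation.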

Scirpus juncoides Rocxb. = assay: as above; parameters: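 index 0 to 10 in 10% steps of herbicidal effect with 10 meaning complete death and 0 below 10%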; conditions: applied on water surface, 1000 g of effective component per hectare, day 21 after the treatment
Summary of the method: as §3

Echinochloa oryzicola = assay: as above; parameters: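 index 0 to 10 in 10% steps of herbicidal effect with 10 meaning complete death and 0 below 10%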; conditions: 1000 g of effective component per hectare, evaluated on day 21 after the treatment, criteria of Table 72
Summary of the method: as §3

Indian millet [5] = assay: Herbicidal activity by field foliage treatment (Test example 3); parameters: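 index 0 to 10 in 10% steps of herbicidal effect with 10 meaning complete death and 0 below 10%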; conditions: 1000 g effective component per hectare, day 14 after the treatment
Summary of the method: (§4)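 Herbicidal effect is rated on a scoring scale 14 days after treatment. Seedlings raised 2 weeks in field soil under glass receive an overall foliar spray of wettable powder diluted in water, giving 1000 g active component per hectare.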

A. retroflexus [6] = assay: as above; parameters: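 index 0 to 10 in 10% steps of herbicidal effect with 10 meaning complete death and 0 below 10%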; conditions: 1000 g effective component per hectare, day 14 after the treatment
Summary of the method: as §4

Setaria viridis = assay: as above; conditions: 1000 g effective component per hectare, day 14 after the treatment;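 also: index 0 to 10 in 10% steps of herbicidal effect with 10 meaning complete death and 0 below 10%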
Summary of the method: as §2

SMILES: COc1ccc(-n2c(=O)c(C(=O)C3=C(O)CCCC3=O)nn(C)c2=O)c(OC)c1OC [I-298]
- herbicidal effect index, Setaria viridis (foxtail): 7
- herbicidal effect index, Echinochloa crus-galli (Echinochloa crus-galli [1]): 10
- herbicidal effect index, Abutilon theophrasti (Indian millet [2]): 10
- herbicidal effect index, Amaranthus retroflexus (A. retroflexus [3]): 10
- herbicidal effect index, Echinochloa crus-galli (Echinochloa crus-galli [4]): 7
- Herbicidal effects index number, Monochoria vaginalis (Monochoria vaginalis): 10
- herbicidal effect index, S. juncoides Rocxb. (Scirpus juncoides Rocxb.): 10
- Herbicidal effects index number, Echinochloa oryzicola (Echinochloa oryzicola): 10
- herbicidal effect index, Abutilon theophrasti (Indian millet [5]): 9
- herbicidal effect index, Amaranthus retroflexus (A. retroflexus [6]): 10
- herbicidal effect index, Setaria viridis (Setaria viridis): 8

SMILES: Cn1nc(C(=O)C2=C(O)CCCC2=O)c(=O)n(-c2cccc(Cl)c2)c1=O [I-52]
- herbicidal effect index, Setaria viridis (foxtail): 10
- herbicidal effect index, Echinochloa crus-galli (Echinochloa crus-galli [1]): 10
- herbicidal effect index, Abutilon theophrasti (Indian millet [2]): 10
- herbicidal effect index, Amaranthus retroflexus (A. retroflexus [3]): 10
- herbicidal effect index, Echinochloa crus-galli (Echinochloa crus-galli [4]): 10
- Herbicidal effects index number, Monochoria vaginalis (Monochoria vaginalis): 10
- herbicidal effect index, S. juncoides Rocxb. (Scirpus juncoides Rocxb.): 10
- Herbicidal effects index number, Echinochloa oryzicola (Echinochloa oryzicola): 10
- herbicidal effect index, Abutilon theophrasti (Indian millet [5]): 10
- herbicidal effect index, Amaranthus retroflexus (A. retroflexus [6]): 10
- herbicidal effect index, Setaria viridis (Setaria viridis): 10

SMILES: Cn1nc(C(=O)C2=C(O)CCCC2=O)c(=O)n(N2CCOCC2)c1=O [I-202]
- herbicidal effect index, Setaria viridis (foxtail): 9
- herbicidal effect index, Echinochloa crus-galli (Echinochloa crus-galli [1]): 9
- herbicidal effect index, Abutilon theophrasti (Indian millet [2]): 9
- herbicidal effect index, Amaranthus retroflexus (A. retroflexus [3]): 10
- herbicidal effect index, Echinochloa crus-galli (Echinochloa crus-galli [4]): 10
- Herbicidal effects index number, Monochoria vaginalis (Monochoria vaginalis): 10
- herbicidal effect index, S. juncoides Rocxb. (Scirpus juncoides Rocxb.): 10
- Herbicidal effects index number, Echinochloa oryzicola (Echinochloa oryzicola): 10
- herbicidal effect index, Abutilon theophrasti (Indian millet [5]): 9
- herbicidal effect index, Amaranthus retroflexus (A. retroflexus [6]): 9
- herbicidal effect index, Setaria viridis (Setaria viridis): 9

SMILES: Cn1nc(C(=O)C2=C(O)CCCC2=O)c(=O)n(-c2ccccc2C#N)c1=O [I-72]
- herbicidal effect index, Setaria viridis (foxtail): 10
- herbicidal effect index, Echinochloa crus-galli (Echinochloa crus-galli [1]): 10
- herbicidal effect index, Abutilon theophrasti (Indian millet [2]): 10
- herbicidal effect index, Amaranthus retroflexus (A. retroflexus [3]): 10
- herbicidal effect index, Echinochloa crus-galli (Echinochloa crus-galli [4]): 9
- Herbicidal effects index number, Monochoria vaginalis (Monochoria vaginalis): 10
- herbicidal effect index, S. juncoides Rocxb. (Scirpus juncoides Rocxb.): 10
- Herbicidal effects index number, Echinochloa oryzicola (Echinochloa oryzicola): 10
- herbicidal effect index, Abutilon theophrasti (Indian millet [5]): 10
- herbicidal effect index, Amaranthus retroflexus (A. retroflexus [6]): 10
- herbicidal effect index, Setaria viridis (Setaria viridis): 10

SMILES: Cc1cc(F)ccc1-n1c(=O)c(C(=O)C2=C(O)CCCC2=O)nn(C)c1=O [I-117]
- herbicidal effect index, Setaria viridis (foxtail): 7
- herbicidal effect index, Echinochloa crus-galli (Echinochloa crus-galli [1]): 9
- herbicidal effect index, Abutilon theophrasti (Indian millet [2]): 10
- herbicidal effect index, Amaranthus retroflexus (A. retroflexus [3]): 10
- herbicidal effect index, Echinochloa crus-galli (Echinochloa crus-galli [4]): 10
- Herbicidal effects index number, Monochoria vaginalis (Monochoria vaginalis): 10
- herbicidal effect index, S. juncoides Rocxb. (Scirpus juncoides Rocxb.): 10
- Herbicidal effects index number, Echinochloa oryzicola (Echinochloa oryzicola): 10
- herbicidal effect index, Abutilon theophrasti (Indian millet [5]): 9
- herbicidal effect index, Amaranthus retroflexus (A. retroflexus [6]): 8
- herbicidal effect index, Setaria viridis (Setaria viridis): 9

SMILES: Cn1nc(C(=O)C2=C(O)CCCC2=O)c(=O)n(-c2ccccc2C(F)(F)F)c1=O [I-63]
- herbicidal effect index, Setaria viridis (foxtail): 10
- herbicidal effect index, Echinochloa crus-galli (Echinochloa crus-galli [1]): 10
- herbicidal effect index, Abutilon theophrasti (Indian millet [2]): 10
- herbicidal effect index, Amaranthus retroflexus (A. retroflexus [3]): 10
- herbicidal effect index, Echinochloa crus-galli (Echinochloa crus-galli [4]): 10
- Herbicidal effects index number, Monochoria vaginalis (Monochoria vaginalis): 10
- herbicidal effect index, S. juncoides Rocxb. (Scirpus juncoides Rocxb.): 10
- Herbicidal effects index number, Echinochloa oryzicola (Echinochloa oryzicola): 10
- herbicidal effect index, Abutilon theophrasti (Indian millet [5]): 10
- herbicidal effect index, Amaranthus retroflexus (A. retroflexus [6]): 10
- herbicidal effect index, Setaria viridis (Setaria viridis): 10

SMILES: Cc1cccc(-n2c(=O)c(C(=O)C3=C(O)CCCC3=O)nn(C)c2=O)c1Cl [I-127]
- herbicidal effect index, Setaria viridis (foxtail): 8
- herbicidal effect index, Echinochloa crus-galli (Echinochloa crus-galli [1]): 10
- herbicidal effect index, Abutilon theophrasti (Indian millet [2]): 10
- herbicidal effect index, Amaranthus retroflexus (A. retroflexus [3]): 10
- herbicidal effect index, Echinochloa crus-galli (Echinochloa crus-galli [4]): 10
- Herbicidal effects index number, Monochoria vaginalis (Monochoria vaginalis): 10
- herbicidal effect index, S. juncoides Rocxb. (Scirpus juncoides Rocxb.): 10
- Herbicidal effects index number, Echinochloa oryzicola (Echinochloa oryzicola): 10
- herbicidal effect index, Abutilon theophrasti (Indian millet [5]): 9
- herbicidal effect index, Amaranthus retroflexus (A. retroflexus [6]): 10
- herbicidal effect index, Setaria viridis (Setaria viridis): 10

SMILES: C#CCn1c(=O)c(C(=O)C2=C(O)CCCC2=O)nn(C)c1=O [I-14]
- herbicidal effect index, Setaria viridis (foxtail): 10
- herbicidal effect index, Echinochloa crus-galli (Echinochloa crus-galli [1]): 9
- herbicidal effect index, Abutilon theophrasti (Indian millet [2]): 10
- herbicidal effect index, Amaranthus retroflexus (A. retroflexus [3]): 10
- herbicidal effect index, Echinochloa crus-galli (Echinochloa crus-galli [4]): 10
- Herbicidal effects index number, Monochoria vaginalis (Monochoria vaginalis): 10
- herbicidal effect index, S. juncoides Rocxb. (Scirpus juncoides Rocxb.): 10
- Herbicidal effects index number, Echinochloa oryzicola (Echinochloa oryzicola): 10
- herbicidal effect index, Abutilon theophrasti (Indian millet [5]): 10
- herbicidal effect index, Amaranthus retroflexus (A. retroflexus [6]): 10
- herbicidal effect index, Setaria viridis (Setaria viridis): 10

SMILES: Cn1nc(C(=O)C2=C(O)CCCC2=O)c(=O)n(-c2ccc(Cl)cc2Cl)c1=O [I-84]
- herbicidal effect index, Setaria viridis (foxtail): 9
- herbicidal effect index, Echinochloa crus-galli (Echinochloa crus-galli [1]): 9
- herbicidal effect index, Abutilon theophrasti (Indian millet [2]): 10
- herbicidal effect index, Amaranthus retroflexus (A. retroflexus [3]): 10
- herbicidal effect index, Echinochloa crus-galli (Echinochloa crus-galli [4]): 9
- Herbicidal effects index number, Monochoria vaginalis (Monochoria vaginalis): 10
- herbicidal effect index, S. juncoides Rocxb. (Scirpus juncoides Rocxb.): 10
- Herbicidal effects index number, Echinochloa oryzicola (Echinochloa oryzicola): 10
- herbicidal effect index, Abutilon theophrasti (Indian millet [5]): 10
- herbicidal effect index, Amaranthus retroflexus (A. retroflexus [6]): 10
- herbicidal effect index, Setaria viridis (Setaria viridis): 10

SMILES: Cn1nc(C(=O)C2=C(O)CCCC2=O)c(=O)n(C2C=CCCC2)c1=O (stereo not drawn) [I-303]
- herbicidal effect index, Setaria viridis (foxtail): 9
- herbicidal effect index, Echinochloa crus-galli (Echinochloa crus-galli [1]): 8
- herbicidal effect index, Abutilon theophrasti (Indian millet [2]): 9
- herbicidal effect index, Amaranthus retroflexus (A. retroflexus [3]): 10
- herbicidal effect index, Echinochloa crus-galli (Echinochloa crus-galli [4]): 9
- Herbicidal effects index number, Monochoria vaginalis (Monochoria vaginalis): 10
- herbicidal effect index, S. juncoides Rocxb. (Scirpus juncoides Rocxb.): 10
- Herbicidal effects index number, Echinochloa oryzicola (Echinochloa oryzicola): 10
- herbicidal effect index, Abutilon theophrasti (Indian millet [5]): 9
- herbicidal effect index, Amaranthus retroflexus (A. retroflexus [6]): 10
- herbicidal effect index, Setaria viridis (Setaria viridis): 10

SMILES: Cn1nc(C(=O)C2=C(O)CCCC2=O)c(=O)n(-c2ccc(-c3ccccc3)cc2)c1=O [I-271]
- herbicidal effect index, Setaria viridis (foxtail): 10
- herbicidal effect index, Echinochloa crus-galli (Echinochloa crus-galli [1]): 10
- herbicidal effect index, Abutilon theophrasti (Indian millet [2]): 10
- herbicidal effect index, Amaranthus retroflexus (A. retroflexus [3]): 10
- herbicidal effect index, Echinochloa crus-galli (Echinochloa crus-galli [4]): 10
- Herbicidal effects index number, Monochoria vaginalis (Monochoria vaginalis): 8
- herbicidal effect index, S. juncoides Rocxb. (Scirpus juncoides Rocxb.): 10
- Herbicidal effects index number, Echinochloa oryzicola (Echinochloa oryzicola): 8
- herbicidal effect index, Abutilon theophrasti (Indian millet [5]): 9
- herbicidal effect index, Amaranthus retroflexus (A. retroflexus [6]): 10
- herbicidal effect index, Setaria viridis (Setaria viridis): 7

SMILES: CCn1c(=O)c(C(=O)C2=C(O)CCCC2=O)nn(C)c1=O [I-2]
- herbicidal effect index, Setaria viridis (foxtail): 7
- herbicidal effect index, Echinochloa crus-galli (Echinochloa crus-galli [1]): 9
- herbicidal effect index, Abutilon theophrasti (Indian millet [2]): 10
- herbicidal effect index, Amaranthus retroflexus (A. retroflexus [3]): 10
- herbicidal effect index, Echinochloa crus-galli (Echinochloa crus-galli [4]): 10
- Herbicidal effects index number, Monochoria vaginalis (Monochoria vaginalis): 10
- herbicidal effect index, S. juncoides Rocxb. (Scirpus juncoides Rocxb.): 10
- Herbicidal effects index number, Echinochloa oryzicola (Echinochloa oryzicola): 10
- herbicidal effect index, Abutilon theophrasti (Indian millet [5]): 10
- herbicidal effect index, Amaranthus retroflexus (A. retroflexus [6]): 10
- herbicidal effect index, Setaria viridis (Setaria viridis): 10
